One data set relates to rabbit saphenous artery. In words: Vasorelaxant effect in vitro: phenylephrine-induced contraction of rabbit saphenous artery rings (C-1.1). The following applies: mean +/− SEM. As to the method:
Rabbits were anaesthetized and sacrificed by intravenous injection of thiopental sodium (about 50 mg/kg) and exsanguinated. The saphenous artery was removed and divided into rings 3 mm wide. The rings were mounted singly on in each case a pair of triangular hooks open at the end and made of 0.3 mm-thick special wire (Remanium®). Each ring was placed under an initial tension in 5 ml organ baths with Krebs-Henseleit solution which was at 37° C., was gassed with carbogen and had the following composition: NaCl 119 mM; KCl 4.8 mM; CaCl2)×2 H2O 1 mM; MgSO4×7 H2O 1.4 mM; KH2PO41.2 mM; NaHCO325 mM; glucose 10 mM; bovine serum albumin 0.001%. The force of contraction was detected with Statham UC2 cells, amplified and digitized via A/D converters (DAS-1802 HC, Keithley Instruments, Munich) and recorded in parallel on chart recorders. Contractions were induced by addition of phenylephrine.
The concentration necessary to reduce the contraction reached in the preceding control by 50% was calculated from this (IC50). The standard application volume was 5 μl. The proportion of DMSO in the bath solution corresponded to 0.1%.

A short description of data set [1]: Particle size distribution by laser diffraction with dry dispersion. The following applies: after micronization, dry measurement (3 or 4 bar). It is filed as physicochemical. Here is the method:
All measurements cited in the above tables were obtained by laser diffraction with dry dispersion using compressed air. Measuring in aqueous suspension with surfactants may lead to smaller particle sizes (×90 up to 1 μm smaller).
The particle size analysis data are usually reported as cumulative undersized distribution by volume. The symbol x is used to denote the particle size, which is defined as diameter of a volume equivalent sphere. Most common characteristic values are calculated from the particle size distribution by interpolation. Frequently used are the particle sizes at the undersize values of 10%, 50% and 90% of the volume distribution, denoted as x10, x50 and x90. x50 is also known as median particle size. The symbol d is widely used to designate the particle size, thus the symbol x may be replaced by the symbol d.

Turning to `O=C(O)CCCCN(CCc1ccccc1OCc1ccc(CCc2ccccc2)cc1)Cc1ccc(C(=O)O)cc1` [comparative example 1 (Cinaciguat)], the “% contraction (PE-induced contraction of rabbit saphenous artery)” value came to 19 ± 6.1% in the data set with rabbit saphenous artery (10^−6 M/L, incubation time 0.5 h); 28 ± 4.2% with rabbit saphenous artery (10^−7 M/L, incubation time 0.5 h); 33 ± 5.8% in the data set with rabbit saphenous artery (10^−7 M/L, incubation time 2.5 h); 54 ± 5.2% with rabbit saphenous artery (10^−8 M/L, incubation time 0.5 h); 48 ± 6.0% in the data set with rabbit saphenous artery (10^−8 M/L, incubation time 2.5 h); 85 ± 4.2% in the data set with rabbit saphenous artery (10^−9 M/L, incubation time 0.5 h). For the same compound, the “% contraction (PE-induced contraction of rabbit saphenous artery)” value in the data set on rabbit saphenous artery (10^−9 M/L, incubation time 2.5 h) is 75 ± 4.6%; with rabbit saphenous artery (10^−10 M/L, incubation time 0.5 h), 101 ± 1.7%; with rabbit saphenous artery (10^−10 M/L, incubation time 2.5 h) it was 93 ± 2.6%; in the data set with rabbit saphenous artery (10^−11 M/L, incubation time 0.5 h), 97 ± 1.2%.
Take `O.O=C(O)c1ccc(CCN(CCc2ccccc2OCc2ccc(-c3ccc(C(F)(F)F)cc3)cc2Cl)[C@H]2CCCc3nc(C(=O)O)ccc32)cc1` [example 8b]: in data set [1], the “PSD X10” value is recorded as “X10: 0.7 μm,”, the “PSD X50” value is on record as “X50: 1.9 μm,” and the “PSD X90” value was “X90: 5.0 μm”.
In the same order, the values of `O.O=C(O)c1ccc(CCN(CCc2ccccc2OCc2ccc(-c3ccc(C(F)(F)F)cc3)cc2Cl)[C@H]2CCCc3nc(C(=O)O)ccc32)cc1` [8d] are “X10: 0.5 μm,”, “X50: 2.3 μm,” and “X90: 9.6 μm”.
For `O.O=C(O)c1ccc(CCN(CCc2ccccc2OCc2ccc(-c3ccc(C(F)(F)F)cc3)cc2Cl)[C@H]2CCCc3nc(C(=O)O)ccc32)cc1` [8g] the same measures were “X10: 0,5 μm,”, “X50: 1.8 μm,” and “X90: 3.9 μm”.
Regarding `O.O=C(O)c1ccc(CCN(CCc2ccccc2OCc2ccc(-c3ccc(C(F)(F)F)cc3)cc2Cl)[C@H]2CCCc3nc(C(=O)O)ccc32)cc1` [example 8e], in data set [1], the “PSD X10” value was “X10: 0.7 μm,”, the “PSD X50” value is “X50: 2.1 μm,” and the “PSD X90” value is on record as “X90: 6.1 μm”.
For “Ethyl 5-{[2-(2-{[3-chloro-4′-(trifluoromethyl)biphenyl-4-yl]methoxy}phenyl)ethyl]amino}-5,6,7,8-tetrahydroquinoline-2-carboxylate [example 8a]” the same measures were “X10: 0.4 μm,”, “X50: 1.7 μm,” and “X90: 4.2 μm”.
As to `O.O=C(O)c1ccc(CCN(CCc2ccccc2OCc2ccc(-c3ccc(C(F)(F)F)cc3)cc2Cl)[C@H]2CCCc3nc(C(=O)O)ccc32)cc1` [8f], in data set [1], the “PSD X10” value is recorded as “X10: 0.6 μm,”, the “PSD X50” value is listed as “X50: 2.4 μm,” and the “PSD X90” value is recorded as “X90: 6.3 μm”.
For `O.O=C(O)c1ccc(CCN(CCc2ccccc2OCc2ccc(-c3ccc(C(F)(F)F)cc3)cc2Cl)[C@H]2CCCc3nc(C(=O)O)ccc32)cc1` [8c] the same measures were “X10: 0.4 μm,”, “X50: 1.8 μm,” and “X90: 4.8 μm”.

Source of the values: patent publication US12138256B2, “Treatment of cardiopulmonary disorders” (Bayer Aktiengesellschaft, priority 2021, dated 2024).
